Results reported in patent US20260262643A1, “HERBICIDAL BENZOXAZINES” (FMC CORPORATION, priority 2022, published 2026).

Assays:
kochia [1] = test: Test A preemergence; assay type: in vivo, Bassia scoparia; details: 0 to 100 scale
Summary of the method: (§1)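 Loam/sand soil; pre-em directed soil spray at planting, post-em spray at 1–2 leaf (2–10 cm). Compound in non-phytotoxic solvent + surfactant. Greenhouse 10 d; visual injury vs untreated, 0 = no effect, 100 = complete control.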

wheat [2] = test: Test A preemergence; assay type: in vivo, Triticum aestivum; details: 0 to 100 scale; for plant injury at 500 g/ha / plant injury at 125 g/ha: Triticum aestivum, pre-emergence, 240 h, read-out: Plant response rating, Wheat
Summary of the method: as §1

ducksalad = test: Test B flooded paddy test; assay type: in vivo, Heteranthera limosa; details: 250 g ai/ha, Flood, 13 days, 0 to 100 scale (0 no effect, 100 complete control)
Summary of the method: (§2)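 Visual scores from 0 (no effect) to 100 (complete kill) were assigned 13 days after treatment by comparison with controls. Seedlings had been treated at two leaves by adding compound to floodwater standing 3 cm deep, kept at that level in the greenhouse.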

blackgrass [3] = test: Test A preemergence; assay type: in vivo, Alopecurus myosuroides; details: 0 to 100 scale
Summary of the method: as §1

kochia [4] = test: Test A postemergence; assay type: in vivo, Bassia scoparia; details: postemergence, 10 days; for pest or weed control at 500 g/ha / pest or weed control at 125 g/ha: Bassia scoparia, post-emergence, 240 h; for pest or weed control at 500 g/ha: read-out: Plant response rating, Kochia; for pest or weed control at 125 g/ha: read-out: Kochia plant response rating
Summary of the method: as §1

corn = test: Test A preemergence; assay type: in vivo, Zea mays; details: 0 to 100 scale; for Corn plant response rating (crop injury, 0 = no effect, 100 = complete kill) at 500 g/ha / Corn plant response rating (crop injury, 0 = no effect, 100 = complete kill) at 125 g/ha: Zea mays, pre-emergence, 240 h
Summary of the method: as §1

wheat [5] = test: Test A postemergence; assay type: in vivo, Triticum aestivum; details: postemergence, 10 days; for plant injury at 500 g/ha / plant injury at 125 g/ha: Triticum aestivum, post-emergence, 240 h; for plant injury at 500 g/ha: read-out: Plant response rating, Wheat; for plant injury at 125 g/ha: read-out: Wheat plant response rating
Summary of the method: as §1

rice = test: Test B flooded paddy test; assay type: in vivo, Oryza sativa; details: 250 g ai/ha, Flood, 13 days, 0 to 100 scale (0 no effect, 100 complete control); for plant injury at 250 g/ha: Oryza sativa, 312 h, read-out: Plant response rating, Rice
Summary of the method: as §2

soybean = test: Test A preemergence; assay type: in vivo, Glycine max; details: 0 to 100 scale
Summary of the method: as §1

blackgrass [6] = test: Test A postemergence; assay type: in vivo, Alopecurus myosuroides; details: postemergence, 10 days; for Blackgrass plant response rating: 0 to 100 scale, 0 no effect, 100 complete control
Summary of the method: as §1

ragweed [7] = test: Test A preemergence; assay type: in vivo, Ambrosia artemisiifolia; details: 0 to 100 scale; for pest or weed control at 500 g/ha / pest or weed control at 125 g/ha: Ambrosia artemisiifolia, pre-emergence, 240 h, read-out: Plant response rating, Ragweed
Summary of the method: as §1

foxtail, giant = test: Test A postemergence; assay type: in vivo, Setaria faberi; details: postemergence, 10 days
Summary of the method: as §1

barnyardgrass = test: Test A preemergence; assay type: in vivo, Echinochloa crusgalli; details: visual injury after 10 days, 0 to 100 scale, 0 is no effect, 100 is complete control
Summary of the method: as §1

ragweed [8] = test: Test A postemergence; assay type: in vivo, Ambrosia artemisiifolia; details: postemergence, 10 days; for pest or weed control at 125 g/ha: read-out: Ragweed plant response rating
Summary of the method: as §1

[9] = Bassia scoparia, pre-emergence, 240 h, 500 g ai/ha, visual injury after 10 days, 0 is no effect, 100 is complete control, read-out: Plant response rating, Kochia
[10] = 500 g ai/ha, visual injury after 10 days, 0 is no effect, 100 is complete control
[11] = Alopecurus myosuroides, pre-emergence, 240 h, 500 g ai/ha, visual injury after 10 days, 0 is no effect, 100 is complete control, read-out: Plant response rating, Blackgrass
[12] = 125 g ai/ha, 0 to 100 scale, 0 no effect, 100 complete control
[13] = 500 g ai/ha, visual injury, 0 to 100 scale (0 no effect, 100 complete control)
[14] = 125 g ai/ha, 0 to 100 scale (0 no effect, 100 complete control)
[15] = Glycine max, pre-emergence, 240 h, 125 g ai/ha, read-out: Plant response rating, Soybean
[16] = Ambrosia artemisiifolia, post-emergence, 240 h, 125 g ai/ha, 0 to 100 scale (0 no effect, 100 complete control)

Q: Which “Plant response rating, Kochia” value (kochia [1]; 125 g ai/ha) does the source give for `CC(C)c1ncn(-c2cc(C(=O)N3C[C@H](C)Oc4c(Cl)cccc43)c3ccccc3c2)n1` [Compound 145] here?
A: 70

Q: What about the pest or weed control at 500 g/ha (kochia [1]; [9]) of the same compound?
A: 50%

Q: What about the “Plant response rating, Wheat” value (wheat [2]; 125 g ai/ha) of the same compound?
A: 0

Q: And the plant injury at 500 g/ha (wheat [2]; [10])?
A: 0%

Q: And the “Plant response rating, Ducksalad” value (ducksalad)?
A: 40

Q: And the “Plant response rating, Blackgrass” value (blackgrass [3]; 125 g ai/ha)?
A: 40

Q: What about the pest or weed control at 500 g/ha (blackgrass [3]; [11]) of the same compound?
A: 80%

Q: What about the “Kochia plant response rating” value (kochia [4]; [12]) of the same compound?
A: 70

Q: What about the pest or weed control at 500 g/ha (kochia [4]; [13]) of the same compound?
A: 80%

Q: And the “Plant response rating, Corn” value (corn; 125 g ai/ha)?
A: 0

Q: What about the Corn plant response rating (crop injury, 0 = no effect, 100 = complete kill) at 500 g/ha (corn; [10]) of the same compound?
A: 0%

Q: And the “Wheat plant response rating” value (wheat [5]; [12])?
A: 30

Q: And the plant injury at 500 g/ha (wheat [5]; [13])?
A: 30%

Q: What about the plant injury at 250 g/ha (rice) of the same compound?
A: 0%

Q: And the “Plant response rating, Soybean” value (soybean; 125 g ai/ha)?
A: 0

Q: And the “Plant response rating, Soybean” value (soybean; [10])?
A: 0

Q: And the “Blackgrass plant response rating” value (blackgrass [6]; 125 g ai/ha)?
A: 40

Q: What about the “Plant response rating, Blackgrass” value (blackgrass [6]; [13]) of the same compound?
A: 70

Q: What about the “Plant response rating, Ragweed” value (ragweed [7]; 125 g ai/ha) of the same compound?
A: 0

Q: What about the pest or weed control at 500 g/ha (ragweed [7]; [10]) of the same compound?
A: 0%

Q: What about the “Foxtail, Giant plant response rating” value (foxtail, giant; [12]) of the same compound?
A: 20

Q: What about the pest or weed control at 500 g/ha (foxtail, giant; Setaria faberi, post-emergence, 240 h, 500 g ai/ha, visual injury, 0 to 100 scale (0 no effect, 100 complete control), read-out: Plant response rating, Foxtail, Giant) of the same compound?
A: 50%

Q: And the “Plant response rating, Barnyardgrass” value (barnyardgrass; 125 g ai/ha)?
A: 0

Q: What about the “Plant response rating, Barnyardgrass” value (barnyardgrass; 500 g ai/ha) of the same compound?
A: 40

Q: What about the “Ragweed plant response rating” value (ragweed [8]; [12]) of the same compound?
A: 0

Q: What about the “Plant response rating, Ragweed” value (ragweed [8]; [13]) of the same compound?
A: 10

Q: For `CC(C)c1ncn(-c2cc(C(=O)N3C[C@H](C)Oc4c(Cl)cccc43)c3ccccc3c2)n1` [Compound 146], which “Plant response rating, Kochia” value (kochia [1]; 125 g ai/ha) is on record?
A: 10

Q: And the “Plant response rating, Kochia” value (kochia [1]; [10])?
A: 30

Q: What about the “Plant response rating, Wheat” value (wheat [2]; [10]) of the same compound?
A: 0

Q: What about the plant injury at 125 g/ha (wheat [2]; 125 g ai/ha) of the same compound?
A: 0%

Q: What about the “Plant response rating, Ducksalad” value (ducksalad) of the same compound?
A: 0

Q: And the “Plant response rating, Blackgrass” value (blackgrass [3]; 125 g ai/ha)?
A: 70

Q: And the “Plant response rating, Blackgrass” value (blackgrass [3]; [10])?
A: 90

Q: What about the “Plant response rating, Kochia” value (kochia [4]; [13]) of the same compound?
A: 90

Q: What about the pest or weed control at 125 g/ha (kochia [4]; [14]) of the same compound?
A: 80%

Q: And the “Plant response rating, Corn” value (corn; [10])?
A: 0

Q: And the Corn plant response rating (crop injury, 0 = no effect, 100 = complete kill) at 125 g/ha (corn; 125 g ai/ha)?
A: 0%

Q: And the “Plant response rating, Wheat” value (wheat [5]; [13])?
A: 30

Q: And the plant injury at 125 g/ha (wheat [5]; [14])?
A: 20%

Q: What about the “Plant response rating, Rice” value (rice) of the same compound?
A: 0

Q: And the “Plant response rating, Soybean” value (soybean; [10])?
A: 20

Q: What about the plant injury at 125 g/ha (soybean; [15]) of the same compound?
A: 0%

Q: What about the “Blackgrass plant response rating” value (blackgrass [6]; 125 g ai/ha) of the same compound?
A: 10

Q: And the “Plant response rating, Blackgrass” value (blackgrass [6]; [13])?
A: 20

Q: What about the “Plant response rating, Ragweed” value (ragweed [7]; [10]) of the same compound?
A: 0

Q: What about the pest or weed control at 125 g/ha (ragweed [7]; 125 g ai/ha) of the same compound?
A: 0%

Q: And the “Plant response rating, Foxtail, Giant” value (foxtail, giant; [13])?
A: 50

Q: What about the pest or weed control at 125 g/ha (foxtail, giant; Setaria faberi, post-emergence, 240 h, 125 g ai/ha, 0 to 100 scale (0 no effect, 100 complete control), read-out: Foxtail, Giant plant response rating) of the same compound?
A: 30%

Q: What about the “Plant response rating, Barnyardgrass” value (barnyardgrass; 125 g ai/ha) of the same compound?
A: 20

Q: What about the “Plant response rating, Barnyardgrass” value (barnyardgrass; 500 g ai/ha) of the same compound?
A: 70

Q: And the “Plant response rating, Ragweed” value (ragweed [8]; [13])?
A: 0

Q: And the pest or weed control at 125 g/ha (ragweed [8]; [16])?
A: 0%

Q: For `CC(C)c1ncn(-c2cc3c(c(C(=O)N4C[C@H](C)Oc5c(Cl)cccc54)c2)OCC3)n1` [Compound 147], which pest or weed control at 125 g/ha (kochia [1]; Bassia scoparia, pre-emergence, 240 h, 125 g ai/ha, read-out: Plant response rating, Kochia) is on record?
A: 70%

Q: And the pest or weed control at 500 g/ha (kochia [1]; [9])?
A: 90%

Q: And the plant injury at 125 g/ha (wheat [2]; 125 g ai/ha)?
A: 20%

Q: What about the plant injury at 500 g/ha (wheat [2]; [10]) of the same compound?
A: 50%

Q: And the pest or weed control at 250 g/ha (ducksalad; Heteranthera limosa, 312 h, read-out: Plant response rating, Ducksalad)?
A: 0%

Q: And the pest or weed control at 125 g/ha (blackgrass [3]; Alopecurus myosuroides, pre-emergence, 240 h, 125 g ai/ha, read-out: Plant response rating, Blackgrass)?
A: 20%

Q: And the pest or weed control at 500 g/ha (blackgrass [3]; [11])?
A: 90%

Q: And the pest or weed control at 125 g/ha (kochia [4]; [14])?
A: 60%

Q: What about the pest or weed control at 500 g/ha (kochia [4]; [13]) of the same compound?
A: 90%

Q: What about the Corn plant response rating (crop injury, 0 = no effect, 100 = complete kill) at 125 g/ha (corn; 125 g ai/ha) of the same compound?
A: 0%

Q: What about the Corn plant response rating (crop injury, 0 = no effect, 100 = complete kill) at 500 g/ha (corn; [10]) of the same compound?
A: 10%

Q: What about the plant injury at 125 g/ha (wheat [5]; [14]) of the same compound?
A: 10%

Q: And the plant injury at 500 g/ha (wheat [5]; [13])?
A: 60%

Q: What about the plant injury at 250 g/ha (rice) of the same compound?
A: 0%

Q: And the plant injury at 125 g/ha (soybean; [15])?
A: 0%

Q: And the plant injury at 500 g/ha (soybean; Glycine max, pre-emergence, 240 h, 500 g ai/ha, visual injury after 10 days, 0 is no effect, 100 is complete control, read-out: Plant response rating, Soybean)?
A: 100%

Q: And the pest or weed control at 125 g/ha (blackgrass [6]; Alopecurus myosuroides, post-emergence, 240 h, 125 g ai/ha, 0 to 100 scale (0 no effect, 100 complete control), read-out: Blackgrass plant response rating)?
A: 70%

Q: And the pest or weed control at 500 g/ha (blackgrass [6]; Alopecurus myosuroides, post-emergence, 240 h, 500 g ai/ha, visual injury, 0 to 100 scale (0 no effect, 100 complete control), read-out: Plant response rating, Blackgrass)?
A: 100%

Q: And the pest or weed control at 125 g/ha (ragweed [7]; 125 g ai/ha)?
A: 0%

Q: And the pest or weed control at 500 g/ha (ragweed [7]; [10])?
A: 0%

Q: What about the “Plant response rating, Barnyardgrass” value (barnyardgrass; 125 g ai/ha) of the same compound?
A: 40

Q: And the “Plant response rating, Barnyardgrass” value (barnyardgrass; 500 g ai/ha)?
A: 100

Q: And the pest or weed control at 125 g/ha (ragweed [8]; [16])?
A: 0%

Q: What about the pest or weed control at 500 g/ha (ragweed [8]; Ambrosia artemisiifolia, post-emergence, 240 h, 500 g ai/ha, visual injury, 0 to 100 scale (0 no effect, 100 complete control), read-out: Plant response rating, Ragweed) of the same compound?
A: 30%
